Laboratory results taken from patent publication US12077503B2, “Substituted cyclic amides and their use as herbicides” (FMC CORPORATION, priority 2015, dated 2024).

Legend:
Type in all cases: in vivo
[1] = system: barnyardgrass (Echinochloa crus-galli); assay: Test B flooded paddy test; settings: Echinochloa crus-galli, 250 g ai/ha, Flood; 0 to 100 scale where 0 is no effect and 100 is complete control; read-out: Barnyardgrass plant response rating
Procedure, shortened: (§1)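 Greenhouse paddy pots with 2-leaf stage plants received compound by direct addition to floodwater 3 cm deep, kept at that level. Scored visually at 13–15 d versus controls (0 no effect; 100 complete control).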

[2] = system: ducksalad (Heteranthera limosa); assay: Test B flooded paddy test; settings: Heteranthera limosa, 250 g ai/ha, Flood; 0 to 100 scale where 0 is no effect and 100 is complete control; read-out: Ducksalad plant response rating
Procedure, shortened: as §1

[3] = system: sedge, umbrella (small-flower umbrella sedge, Cyperus difformis); assay: Test B flooded paddy test; settings: Cyperus difformis, 250 g ai/ha, Flood; 0 to 100 scale where 0 is no effect and 100 is complete control; read-out: Sedge, Umbrella plant response rating
Procedure, shortened: as §1

[4] = system: rice (Oryra sativa); assay: Test B flooded paddy test; settings: Oryza sativa, 250 g ai/ha, Flood; 0 to 100 scale where 0 is no effect and 100 is complete control; read-out: Rice plant response rating
Procedure, shortened: as §1

[5] = system: corn (Zea mays); assay: Test A postemergence; settings: Zea mays, post-emergence, 240 h, Postemergence, read-out: Corn plant response rating (0 to 100 scale); for plant injury at 125 g/ha: 125 g ai/ha, visual rating about 10 d after treatment; for plant injury at 31 g/ha: 31 g ai/ha, 0 is no effect, 100 is complete control
Procedure, shortened: (§2)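 In a loam soil and sand blend, planted seeds got a preemergence directed soil spray, and young plants at the one- to two-leaf stage, 2–10 cm high, got a postemergence application; ~10 d greenhouse hold; injury rated visually, 0 = none, 100 = complete control.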

[6] = system: Kochia (Kochia scoparia); assay: Test A postemergence; settings: Bassia scoparia, post-emergence, 240 h, Postemergence, read-out: Kochia plant response rating (0 to 100 scale); for pest or weed control at 125 g/ha: 125 g ai/ha, visual rating about 10 d after treatment; for pest or weed control at 31 g/ha: 31 g ai/ha, 0 is no effect, 100 is complete control
Procedure, shortened: as §2

[7] = system: barnyardgrass (Echinochloa crus-galli); assay: Test A postemergence; settings: Echinochloa crus-galli, post-emergence, 240 h, Postemergence; for pest or weed control at 125 g/ha: 125 g ai/ha, visual rating about 10 d after treatment, read-out: Barnyardgrass plant response rating (0 to 100 scale, 0 no effect, 100 complete control); for pest or weed control at 31 g/ha: 31 g ai/ha, 0 is no effect, 100 is complete control, read-out: Barnyardgrass plant response rating (0 to 100 scale)
Procedure, shortened: as §2

[8] = system: pigweed (Amaranthus retroflexus); assay: Test A postemergence; settings: Amaranthus retroflexus, post-emergence, 240 h, Postemergence, read-out: Pigweed plant response rating (0 to 100 scale); for pest or weed control at 125 g/ha: 125 g ai/ha, visual rating about 10 d after treatment; for pest or weed control at 31 g/ha: 31 g ai/ha, 0 is no effect, 100 is complete control
Procedure, shortened: as §2

[9] = system: ragweed (common ragweed, Ambrosia elatior); assay: Test A postemergence; settings: Ambrosia artemisiifolia, post-emergence, 240 h, Postemergence, read-out: Ragweed plant response rating (0 to 100 scale); for pest or weed control at 125 g/ha: 125 g ai/ha, visual rating about 10 d after treatment; for pest or weed control at 31 g/ha: 31 g ai/ha, 0 is no effect, 100 is complete control
Procedure, shortened: as §2

[10] = system: blackgrass (Alopecurus myosuroides); assay: Test A postemergence; settings: Alopecurus myosuroides, post-emergence, 240 h, Postemergence, read-out: Blackgrass plant response rating (0 to 100 scale); for pest or weed control at 125 g/ha: 125 g ai/ha, visual rating about 10 d after treatment; for pest or weed control at 31 g/ha: 31 g ai/ha, 0 is no effect, 100 is complete control
Procedure, shortened: as §2

[11] = system: Galium (catchweed bedstraw, Galium aparine); assay: Test A postemergence; settings: Galium, post-emergence, 240 h, Postemergence, read-out: Galium plant response rating (0 to 100 scale); for pest or weed control at 125 g/ha: 125 g ai/ha, visual rating about 10 d after treatment; for pest or weed control at 31 g/ha: 31 g ai/ha, 0 is no effect, 100 is complete control
Procedure, shortened: as §2

[12] = system: giant foxtail (Setaria faberii); assay: Test A postemergence; settings: Setaria faberi, post-emergence, 240 h, Postemergence, read-out: Foxtail, Giant plant response rating (0 to 100 scale); for pest or weed control at 125 g/ha: 125 g ai/ha, visual rating about 10 d after treatment; for pest or weed control at 31 g/ha: 31 g ai/ha, 0 is no effect, 100 is complete control
Procedure, shortened: as §2

[13] = system: wheat (Triticum aestivum); assay: Test A postemergence; settings: Triticum aestivum, post-emergence, 240 h, Postemergence, read-out: Wheat plant response rating (0 to 100 scale); for plant injury at 125 g/ha: 125 g ai/ha, visual rating about 10 d after treatment; for plant injury at 31 g/ha: 31 g ai/ha, 0 is no effect, 100 is complete control
Procedure, shortened: as §2

[14] = system: ryegrass, Italian (Italian ryegrass, Lolium multiflorum); assay: Test A postemergence; settings: Lolium multiflorum, post-emergence, 240 h, Postemergence, read-out: Ryegrass, Italian plant response rating (0 to 100 scale); for pest or weed control at 125 g/ha: 125 g ai/ha, visual rating about 10 d after treatment; for pest or weed control at 31 g/ha: 31 g ai/ha, 0 is no effect, 100 is complete control
Procedure, shortened: as §2

[15] = system: Kochia (Kochia scoparia); assay: Test A preemergence; settings: Bassia scoparia, pre-emergence, 240 h, 0 to 100 scale where 0 is no effect and 100 is complete control, read-out: Kochia plant response rating; for pest or weed control at 31 g/ha: 31 g ai/ha, Preemergence; for pest or weed control at 125 g/ha: 125 g ai/ha, preemergence, visual injury rating, approximately 10 d
Procedure, shortened: as §2

[16] = system: barnyardgrass (Echinochloa crus-galli); assay: Test A preemergence; settings: Echinochloa crus-galli, pre-emergence, 240 h, 0 to 100 scale where 0 is no effect and 100 is complete control, read-out: Barnyardgrass plant response rating; for pest or weed control at 31 g/ha: 31 g ai/ha, Preemergence; for pest or weed control at 125 g/ha: 125 g ai/ha, preemergence, visual injury rating, approximately 10 d
Procedure, shortened: as §2

[17] = system: pigweed (Amaranthus retroflexus); assay: Test A preemergence; settings: Amaranthus retroflexus, pre-emergence, 240 h, 0 to 100 scale where 0 is no effect and 100 is complete control, read-out: Pigweed plant response rating; for pest or weed control at 31 g/ha: 31 g ai/ha, Preemergence; for pest or weed control at 125 g/ha: 125 g ai/ha, preemergence, visual injury rating, approximately 10 d
[18] = system: ragweed (common ragweed, Ambrosia elatior); assay: Test A preemergence; settings: Ambrosia artemisiifolia, pre-emergence, 240 h, 0 to 100 scale where 0 is no effect and 100 is complete control, read-out: Ragweed plant response rating; for pest or weed control at 31 g/ha: 31 g ai/ha, Preemergence; for pest or weed control at 125 g/ha: 125 g ai/ha, preemergence, visual injury rating, approximately 10 d
Procedure, shortened: as §2

[19] = system: giant foxtail (Setaria faberii); assay: Test A preemergence; settings: Setaria faberi, pre-emergence, 240 h, 0 to 100 scale where 0 is no effect and 100 is complete control, read-out: Foxtail, Giant plant response rating; for pest or weed control at 31 g/ha: 31 g ai/ha, Preemergence; for pest or weed control at 125 g/ha: 125 g ai/ha, preemergence, visual injury rating, approximately 10 d
Procedure, shortened: as §2

[20] = system: ryegrass, Italian (Italian ryegrass, Lolium multiflorum); assay: Test A preemergence; settings: Lolium multiflorum, pre-emergence, 240 h, 0 to 100 scale where 0 is no effect and 100 is complete control, read-out: Ryegrass, Italian plant response rating; for pest or weed control at 31 g/ha: 31 g ai/ha, Preemergence; for pest or weed control at 125 g/ha: 125 g ai/ha, preemergence, visual injury rating, approximately 10 d
Procedure, shortened: as §2

CN1C[C@H](c2cc(Cl)cc(Cl)c2)[C@@H](C(=O)Nc2ccccc2F)C1=O [Compound 1269]
60%: pest or weed control at 250 g/ha [1] | pest or weed control at 125 g/ha [11] | pest or weed control at 31 g/ha [12] | plant injury at 125 g/ha [13]
70%: pest or weed control at 31 g/ha [16]
90%: pest or weed control at 250 g/ha [2] | pest or weed control at 125 g/ha [7] | pest or weed control at 31 g/ha [7] | pest or weed control at 125 g/ha [16] | pest or weed control at 31 g/ha [19] | pest or weed control at 125 g/ha [19]
40%: pest or weed control at 125 g/ha [6] | pest or weed control at 125 g/ha [10]
50%: pest or weed control at 125 g/ha [15]
80%: plant injury at 125 g/ha [5] | pest or weed control at 125 g/ha [12]
0%: pest or weed control at 250 g/ha [3] | pest or weed control at 250 g/ha [4] | plant injury at 31 g/ha [5] | pest or weed control at 31 g/ha [6] | pest or weed control at 31 g/ha [8] | pest or weed control at 125 g/ha [9] | pest or weed control at 31 g/ha [9] | pest or weed control at 31 g/ha [10] | pest or weed control at 31 g/ha [11] | plant injury at 31 g/ha [13] | pest or weed control at 31 g/ha [14] | pest or weed control at 31 g/ha [15] | pest or weed control at 31 g/ha [17] | pest or weed control at 125 g/ha [17] | pest or weed control at 31 g/ha [18] | pest or weed control at 125 g/ha [18] | pest or weed control at 31 g/ha [20]
30%: pest or weed control at 125 g/ha [8] | pest or weed control at 125 g/ha [14] | pest or weed control at 125 g/ha [20]

Cc1c(F)cccc1NC(=O)[C@H]1C(=O)N(C)C[C@@H]1c1ccc2c(c1)C(F)(F)C(F)(F)O2 [Compound 1272]
50%: pest or weed control at 250 g/ha [1] | plant injury at 125 g/ha [5] | pest or weed control at 31 g/ha [11] | pest or weed control at 31 g/ha [12] | plant injury at 125 g/ha [13]
80%: pest or weed control at 250 g/ha [2] | pest or weed control at 125 g/ha [12]
0%: pest or weed control at 250 g/ha [3] | plant injury at 31 g/ha [5] | pest or weed control at 31 g/ha [6] | pest or weed control at 125 g/ha [8] | pest or weed control at 31 g/ha [8] | pest or weed control at 125 g/ha [9] | pest or weed control at 31 g/ha [9] | pest or weed control at 31 g/ha [15] | pest or weed control at 31 g/ha [17] | pest or weed control at 125 g/ha [17] | pest or weed control at 31 g/ha [18] | pest or weed control at 125 g/ha [18]
20%: pest or weed control at 250 g/ha [4] | pest or weed control at 125 g/ha [6] | pest or weed control at 31 g/ha [10] | plant injury at 31 g/ha [13] | pest or weed control at 31 g/ha [14] | pest or weed control at 125 g/ha [15] | pest or weed control at 31 g/ha [20]
40%: pest or weed control at 31 g/ha [7] | pest or weed control at 125 g/ha [10]
70%: pest or weed control at 125 g/ha [7]
90%: pest or weed control at 31 g/ha [16] | pest or weed control at 125 g/ha [16] | pest or weed control at 31 g/ha [19] | pest or weed control at 125 g/ha [19]
30%: pest or weed control at 125 g/ha [14]
60%: pest or weed control at 125 g/ha [11] | pest or weed control at 125 g/ha [20]
